Data set [1] in a line: Insolubility observed in the HepG2 viability assay. Format: physicochemical. The conditions noted are these: RPMI culture medium of the HepG2 viability assay, 37 °C, kinetic from dmso stock, RPMI medium (1% L-Glu, 10% FCS), read-out: concentration from/at which insoluble. The method, then: Cell viability was assayed on HepG2 cells. HepG2 cells were cultured in 96-well black culture plates with transparent bottom in RPMI medium (1% L-Glu, 10% FCS). 3 hours after plating, different drug concentrations (0.1 μM-100 μM) or DMSO as control were added. Chlorpromazine hydrochloride (Sigma, # C0982) and cycloheximide (Sigma, # C1988) were used as control substances. Each concentration was run in triplicates. After 48 hours of incubation, Alamar Blue reagent (BIOSOURCE, # DAL1100) was added and plates were incubated for 4 hours at […]. Absorbance was measured in the Tecan-plate reader (Tecan, infinite M200) at 570 nm and 600 nm. Product example 1 was insoluble from a concentration of 50 μM, product example 33 from 30 μM and product example 23 at 100 μM.

In another data set the test system is HTT-Q53 protein. The data set is described as follows: GST-Htt-Q53 filter assay with conformational CAG antibody. Format: biochemical. Conditions: samples at 0, 4, 5 and 6 h, 30° C. The method, then: GST-Htt-Q53-protein stock solution was ultra-centrifugated (40 min, 55.000 rpm [TLA-55 rotor], 4° C.); the supernatant was diluted with H2O to a final concentration of 2 μM. DMSO as a control, or drugs at various concentrations were added to the supernatant of GST-Htt-Q53 protein which was preincubated with PreScission Protease (GE Healthcare, #27-0843-01) in Tris-buffer (A:B=1:1; A:50 mM Tris, 150 mM NaCl, pH=6.8; B:1 mM EDTA, pH=8.0+10 mM DTT) and incubated at 30° C. (300 rpm). Samples were taken at 0, 4, 5 and 6 h. The samples were diluted with SDS-buffer (4% SDS, 100 mM DTT) and heated at 98° C. for 5 min. Samples were filtered through a cellulose-acetate membrane which was equilibrated with SDS solution (0.1%). The membrane was washed twice (SDS, 0.1%), blocked with skim milk (3% in PBS) for 30 min and developed with CAG antibody over night at 4° C. and with peroxidase labeled anti rabbit-antibody for 1 h at room temperature. The membrane was washed (2×TBS-0.05% Tween-20, 2×TBS) and luminescence was recorded with Chem Glow.

A further data set has as its system tubulin. The data set is described as follows: Tubulin polymerization assay (Cytoskeleton, Inc.). Format: biochemical. The conditions noted are these: various concentrations. The method, then: The tubulin polymerization assay (Cytoskeleton, Inc., Denver, Colo., USA, #BK011) was performed in accordance to the instruction manual.
The next data set concerns the target BSA (Bos taurus, UniProt P02769). The data set is described as follows: Hydrazone hydrolysis in ammonium acetate solution with addition of BSA (RP-HPLC). Format: physicochemical. Conditions: bovine, BSA (5 µM) in ammonium acetate solution, 20 μM hydrazone, 10 mM ammonium acetate, read-out: free soluble hydrazone after addition of BSA (converted). The method, then: FIG. 4 illustrates the difference in the hydrazone hydrolysis with and without the addition of BSA of product example 1. A freshly prepared 10 mM methanol solution of product example 1 was diluted with an ammonium acetate (10 mM) BSA (5 μM) solution to a final concentration of 20 μM. The free soluble hydrazone was analyzed via RP-HPLC over a sample period of 24 h. The injection volume was 20 μL, the sample was stored at room temperature. The hydrazone peak was exploited for the determination of the hydrazone concentration. After the addition of BSA approximately […] of the available hydrazone was directly associated to the protein. Afterwards, the free hydrazone concentration was almost constant, between 96% and 91%, over the sample period.

Structures are written as SMILES. Values after ≈ are worked out from the molar mass of the structure shown.

The values below come from US9512066B2, “Enhancers of protein degradation” (MAX-DELBRUCK-CENTRUM FUR MOLEKULARE MEDIZIN, priority 2009, dated 2016).

Sequence of BSA (P02769 25-607): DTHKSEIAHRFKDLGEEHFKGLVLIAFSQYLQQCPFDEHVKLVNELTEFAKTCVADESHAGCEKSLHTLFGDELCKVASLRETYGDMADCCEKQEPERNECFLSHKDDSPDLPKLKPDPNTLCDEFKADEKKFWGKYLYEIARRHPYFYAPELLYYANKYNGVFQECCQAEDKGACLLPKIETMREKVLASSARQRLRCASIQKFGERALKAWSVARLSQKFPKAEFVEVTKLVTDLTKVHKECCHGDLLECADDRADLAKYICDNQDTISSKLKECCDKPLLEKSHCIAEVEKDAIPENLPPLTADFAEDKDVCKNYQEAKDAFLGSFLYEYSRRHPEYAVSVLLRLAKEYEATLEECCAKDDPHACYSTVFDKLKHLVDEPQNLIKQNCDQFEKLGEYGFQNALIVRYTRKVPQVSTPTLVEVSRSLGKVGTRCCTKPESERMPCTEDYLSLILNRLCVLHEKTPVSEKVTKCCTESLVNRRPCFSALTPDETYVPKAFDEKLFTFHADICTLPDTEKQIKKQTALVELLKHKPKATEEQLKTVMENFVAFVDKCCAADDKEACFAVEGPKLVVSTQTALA

In the case of `Oc1ccc(C=NNc2c(F)c(F)c(F)c(F)c2F)c(O)c1` [Example 23, 4-((2-(Perfluorophenyl)hydrazono)methyl)benzene-1,3-diol], in data set [1], the solubility came out at 100 µM (≈ 31.8 µg/mL). The “change in conformation of the HTT-Q53 protein detected by the conformational CAG antibody” value in the data set with HTT-Q53 protein is recorded as “time-dependent change in conformation”.
As for `Oc1ccc(C=NNc2c(Cl)cc(C(F)(F)F)cc2Cl)c(O)c1` [Example 1, 4-((2-(2,6-Dichloro-4-(trifluoromethyl)phenyl)hydrazono)methyl)benzene-1,3-diol], the “effect on tubulin polymerization” value with tubulin is on record as “no effect”. In addition, in data set [1], the solubility is not below 50 µM. Besides, in the data set with HTT-Q53 protein, the “change in conformation of the HTT-Q53 protein detected by the conformational CAG antibody” value is on record as “time-dependent change in conformation”. For the same compound, the fraction unbound at 20 µM on BSA is approximately 0.83.
Regarding `O=[N+]([O-])c1ccc(NN=Cc2ccc(O)cc2O)cc1` [Example 33, 4-((2-(4-Nitrophenyl)hydrazono)methyl)benzene-1,3-diol], the solubility in data set [1] is not below 30 µM.
